According to publication PMC5513037, “Examining the influence of specificity ligands and ATP-competitive ligands on the overall effectiveness of bivalent kinase inhibitors” (Proteome Science, 2017):
pIC50: −log10 of the molar value. One block for each compound: values may come before it.

Experiments:
Type in all cases: binding
[1] = biological target: T1, ACVR1B (Homo sapiens, UniProt P36896); assay: KAM-matrix competition in K562 lysate
T1 construct: endogenous in cells; host or cells: K562
T1 sequence (P36896 24-505): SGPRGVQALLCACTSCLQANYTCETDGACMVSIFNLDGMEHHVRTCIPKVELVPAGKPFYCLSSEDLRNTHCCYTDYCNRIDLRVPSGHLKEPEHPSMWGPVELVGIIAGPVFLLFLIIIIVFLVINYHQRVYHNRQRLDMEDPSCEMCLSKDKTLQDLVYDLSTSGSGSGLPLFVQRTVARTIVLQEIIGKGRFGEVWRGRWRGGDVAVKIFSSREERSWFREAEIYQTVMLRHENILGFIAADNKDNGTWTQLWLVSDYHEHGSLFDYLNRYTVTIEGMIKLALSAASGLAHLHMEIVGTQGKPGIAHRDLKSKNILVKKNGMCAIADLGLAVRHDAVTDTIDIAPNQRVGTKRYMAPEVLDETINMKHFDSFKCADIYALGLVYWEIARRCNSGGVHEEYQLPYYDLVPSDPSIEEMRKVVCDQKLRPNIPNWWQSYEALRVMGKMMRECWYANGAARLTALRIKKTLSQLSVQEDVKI
Method: Supplement 12953_2017_125_MOESM1_ESM.zip/MS_Supp Info.xlsx, sheet "KAM" | column: 10 uM KAM; 1 uM KAM; 0.1 uM KAM; 0.01 uM KAM; 0.001 uM KAM; RB50

[2] = biological target: T2, TFG (Homo sapiens, UniProt Q92734); assay: Imatinib-matrix competition in K562 lysate; details: read-out: RB50 (the source's name)
T2 construct: endogenous in cells; host or cells: K562
Description: (§1) Data were visualized for further analysis using Spotfire DXP.

[3] = biological target: T3, TKT (Homo sapiens, UniProt P29401); assay: Imatinib-matrix competition in K562 lysate; details: read-out: RB50 (the source's name)
T3 construct: endogenous in cells; host or cells: K562
Description: as §1

[4] = biological target: T4, NRK (Homo sapiens, UniProt Q7Z2Y5); assay: Imatinib-matrix competition in K562 lysate; details: read-out: RB50 (the source's name)
T4 construct: endogenous in cells; host or cells: K562
Description: as §1

[5] = biological target: T5, SPEG (Homo sapiens, UniProt Q15772); assay: Imatinib-matrix competition in K562 lysate; details: read-out: RB50 (the source's name)
T5 construct: endogenous in cells; host or cells: K562
Description: as §1

[6] = biological target: T6, SRM (Homo sapiens, UniProt P19623); assay: Imatinib-matrix competition in K562 lysate; details: read-out: RB50 (the source's name)
T6 construct: K562 lysate (5 mg per treatment) was preincubated; endogenous in cells; host or cells: K562 lysate
Description: as §1

[7] = biological target: T7, BUB1B (Homo sapiens, UniProt O60566); assay: Imatinib-matrix competition in K562 lysate; details: read-out: RB50 (the source's name)
T7 construct: endogenous in cells; host or cells: K562
Description: as §1

[8] = biological target: T8, TRIM33 (Homo sapiens, UniProt Q9UPN9); assay: Imatinib-matrix competition in K562 lysate; details: read-out: RB50 (the source's name)
T8 construct: endogenous in cells; host or cells: K562
Description: as §1

[9] = biological target: T9, EEF2K (Homo sapiens, UniProt O00418); assay: Imatinib-matrix competition in K562 lysate; details: read-out: RB50 (the source's name)
T9 construct: endogenous in cells; host or cells: K562 lysate
T9 sequence (O00418 1-725): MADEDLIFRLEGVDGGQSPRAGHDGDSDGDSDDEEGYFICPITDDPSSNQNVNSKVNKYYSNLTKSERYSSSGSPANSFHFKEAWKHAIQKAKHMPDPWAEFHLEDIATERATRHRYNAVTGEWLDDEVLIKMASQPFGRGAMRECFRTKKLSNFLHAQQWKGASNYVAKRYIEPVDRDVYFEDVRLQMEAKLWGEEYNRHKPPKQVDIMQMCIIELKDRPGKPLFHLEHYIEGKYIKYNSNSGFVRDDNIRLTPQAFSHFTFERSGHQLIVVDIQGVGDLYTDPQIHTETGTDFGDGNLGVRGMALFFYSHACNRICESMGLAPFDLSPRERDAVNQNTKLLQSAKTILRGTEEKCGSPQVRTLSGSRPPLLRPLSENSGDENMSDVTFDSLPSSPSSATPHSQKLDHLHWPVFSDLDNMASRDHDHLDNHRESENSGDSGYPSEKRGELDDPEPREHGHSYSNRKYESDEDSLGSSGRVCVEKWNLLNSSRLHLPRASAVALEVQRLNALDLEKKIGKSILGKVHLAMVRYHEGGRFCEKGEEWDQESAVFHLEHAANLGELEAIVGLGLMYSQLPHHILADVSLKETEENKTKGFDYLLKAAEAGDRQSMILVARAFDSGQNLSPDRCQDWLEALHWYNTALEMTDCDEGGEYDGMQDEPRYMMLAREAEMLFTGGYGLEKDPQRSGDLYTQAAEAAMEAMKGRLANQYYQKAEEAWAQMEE
Description: as §1

[10] = biological target: T10, SMG1 (Homo sapiens, UniProt Q96Q15); assay: Imatinib-matrix competition in K562 lysate; details: read-out: RB50 (the source's name)
T10 construct: endogenous in cells; host or cells: K562
Description: as §1

[11] = biological target: T11, ATR (Homo sapiens, UniProt Q13535); assay: Imatinib-matrix competition in K562 lysate; details: read-out: RB50 (the source's name)
T11 construct: endogenous in cells; host or cells: K562
Description: as §1

[12] = biological target: T12, VRK3 (Homo sapiens, UniProt Q8IV63); assay: Imatinib-matrix competition in K562 lysate; details: read-out: RB50 (the source's name)
T12 construct: endogenous in cells; host or cells: K562
Description: as §1

[13] = biological target: T13, VRK1 (Homo sapiens, UniProt Q99986); assay: Imatinib-matrix competition in K562 lysate; details: read-out: RB50 (the source's name)
T13 construct: endogenous in cells; host or cells: K562
T13 sequence (Q99986 1-396): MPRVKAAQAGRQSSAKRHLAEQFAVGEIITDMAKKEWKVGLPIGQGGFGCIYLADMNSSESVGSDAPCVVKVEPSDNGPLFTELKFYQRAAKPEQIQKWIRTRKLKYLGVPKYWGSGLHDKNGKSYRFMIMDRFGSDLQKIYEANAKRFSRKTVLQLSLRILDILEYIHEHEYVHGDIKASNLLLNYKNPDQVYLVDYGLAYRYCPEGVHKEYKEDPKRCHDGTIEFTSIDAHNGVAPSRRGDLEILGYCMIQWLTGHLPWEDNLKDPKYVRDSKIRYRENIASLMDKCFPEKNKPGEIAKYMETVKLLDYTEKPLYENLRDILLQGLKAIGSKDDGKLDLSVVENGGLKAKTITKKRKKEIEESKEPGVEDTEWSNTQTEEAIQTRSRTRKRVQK
Description: as §1

[14] = biological target: T14, RP1 (Homo sapiens, UniProt P56715); assay: Imatinib-matrix competition in K562 lysate; details: read-out: RB50 (the source's name)
T14 construct: endogenous in cells; host or cells: K562
Description: as §1

[15] = biological target: T15, TRIM28 (Homo sapiens, UniProt Q13263); assay: Imatinib-matrix competition in K562 lysate; details: read-out: RB50 (the source's name)
T15 construct: endogenous in cells; host or cells: K562
Description: as §1

[16] = biological target: T16, TRRAP (Homo sapiens, UniProt Q9Y4A5); assay: Imatinib-matrix competition in K562 lysate; details: read-out: RB50 (the source's name)
T16 construct: endogenous in cells; host or cells: K562
Description: as §1

[17] = biological target: T17, ALPK3 (Homo sapiens, UniProt Q96L96); assay: Imatinib-matrix competition in K562 lysate; details: read-out: RB50 (the source's name)
T17 construct: endogenous in cells; host or cells: K562
Description: as §1

[18] = biological target: T18, PRKDC (Homo sapiens, UniProt P78527); assay: Imatinib-matrix competition in K562 lysate; details: read-out: RB50 (the source's name)
T18 construct: endogenous in cells; host or cells: K562
Description: as §1

T10 sequence (Q96Q15 whole entry): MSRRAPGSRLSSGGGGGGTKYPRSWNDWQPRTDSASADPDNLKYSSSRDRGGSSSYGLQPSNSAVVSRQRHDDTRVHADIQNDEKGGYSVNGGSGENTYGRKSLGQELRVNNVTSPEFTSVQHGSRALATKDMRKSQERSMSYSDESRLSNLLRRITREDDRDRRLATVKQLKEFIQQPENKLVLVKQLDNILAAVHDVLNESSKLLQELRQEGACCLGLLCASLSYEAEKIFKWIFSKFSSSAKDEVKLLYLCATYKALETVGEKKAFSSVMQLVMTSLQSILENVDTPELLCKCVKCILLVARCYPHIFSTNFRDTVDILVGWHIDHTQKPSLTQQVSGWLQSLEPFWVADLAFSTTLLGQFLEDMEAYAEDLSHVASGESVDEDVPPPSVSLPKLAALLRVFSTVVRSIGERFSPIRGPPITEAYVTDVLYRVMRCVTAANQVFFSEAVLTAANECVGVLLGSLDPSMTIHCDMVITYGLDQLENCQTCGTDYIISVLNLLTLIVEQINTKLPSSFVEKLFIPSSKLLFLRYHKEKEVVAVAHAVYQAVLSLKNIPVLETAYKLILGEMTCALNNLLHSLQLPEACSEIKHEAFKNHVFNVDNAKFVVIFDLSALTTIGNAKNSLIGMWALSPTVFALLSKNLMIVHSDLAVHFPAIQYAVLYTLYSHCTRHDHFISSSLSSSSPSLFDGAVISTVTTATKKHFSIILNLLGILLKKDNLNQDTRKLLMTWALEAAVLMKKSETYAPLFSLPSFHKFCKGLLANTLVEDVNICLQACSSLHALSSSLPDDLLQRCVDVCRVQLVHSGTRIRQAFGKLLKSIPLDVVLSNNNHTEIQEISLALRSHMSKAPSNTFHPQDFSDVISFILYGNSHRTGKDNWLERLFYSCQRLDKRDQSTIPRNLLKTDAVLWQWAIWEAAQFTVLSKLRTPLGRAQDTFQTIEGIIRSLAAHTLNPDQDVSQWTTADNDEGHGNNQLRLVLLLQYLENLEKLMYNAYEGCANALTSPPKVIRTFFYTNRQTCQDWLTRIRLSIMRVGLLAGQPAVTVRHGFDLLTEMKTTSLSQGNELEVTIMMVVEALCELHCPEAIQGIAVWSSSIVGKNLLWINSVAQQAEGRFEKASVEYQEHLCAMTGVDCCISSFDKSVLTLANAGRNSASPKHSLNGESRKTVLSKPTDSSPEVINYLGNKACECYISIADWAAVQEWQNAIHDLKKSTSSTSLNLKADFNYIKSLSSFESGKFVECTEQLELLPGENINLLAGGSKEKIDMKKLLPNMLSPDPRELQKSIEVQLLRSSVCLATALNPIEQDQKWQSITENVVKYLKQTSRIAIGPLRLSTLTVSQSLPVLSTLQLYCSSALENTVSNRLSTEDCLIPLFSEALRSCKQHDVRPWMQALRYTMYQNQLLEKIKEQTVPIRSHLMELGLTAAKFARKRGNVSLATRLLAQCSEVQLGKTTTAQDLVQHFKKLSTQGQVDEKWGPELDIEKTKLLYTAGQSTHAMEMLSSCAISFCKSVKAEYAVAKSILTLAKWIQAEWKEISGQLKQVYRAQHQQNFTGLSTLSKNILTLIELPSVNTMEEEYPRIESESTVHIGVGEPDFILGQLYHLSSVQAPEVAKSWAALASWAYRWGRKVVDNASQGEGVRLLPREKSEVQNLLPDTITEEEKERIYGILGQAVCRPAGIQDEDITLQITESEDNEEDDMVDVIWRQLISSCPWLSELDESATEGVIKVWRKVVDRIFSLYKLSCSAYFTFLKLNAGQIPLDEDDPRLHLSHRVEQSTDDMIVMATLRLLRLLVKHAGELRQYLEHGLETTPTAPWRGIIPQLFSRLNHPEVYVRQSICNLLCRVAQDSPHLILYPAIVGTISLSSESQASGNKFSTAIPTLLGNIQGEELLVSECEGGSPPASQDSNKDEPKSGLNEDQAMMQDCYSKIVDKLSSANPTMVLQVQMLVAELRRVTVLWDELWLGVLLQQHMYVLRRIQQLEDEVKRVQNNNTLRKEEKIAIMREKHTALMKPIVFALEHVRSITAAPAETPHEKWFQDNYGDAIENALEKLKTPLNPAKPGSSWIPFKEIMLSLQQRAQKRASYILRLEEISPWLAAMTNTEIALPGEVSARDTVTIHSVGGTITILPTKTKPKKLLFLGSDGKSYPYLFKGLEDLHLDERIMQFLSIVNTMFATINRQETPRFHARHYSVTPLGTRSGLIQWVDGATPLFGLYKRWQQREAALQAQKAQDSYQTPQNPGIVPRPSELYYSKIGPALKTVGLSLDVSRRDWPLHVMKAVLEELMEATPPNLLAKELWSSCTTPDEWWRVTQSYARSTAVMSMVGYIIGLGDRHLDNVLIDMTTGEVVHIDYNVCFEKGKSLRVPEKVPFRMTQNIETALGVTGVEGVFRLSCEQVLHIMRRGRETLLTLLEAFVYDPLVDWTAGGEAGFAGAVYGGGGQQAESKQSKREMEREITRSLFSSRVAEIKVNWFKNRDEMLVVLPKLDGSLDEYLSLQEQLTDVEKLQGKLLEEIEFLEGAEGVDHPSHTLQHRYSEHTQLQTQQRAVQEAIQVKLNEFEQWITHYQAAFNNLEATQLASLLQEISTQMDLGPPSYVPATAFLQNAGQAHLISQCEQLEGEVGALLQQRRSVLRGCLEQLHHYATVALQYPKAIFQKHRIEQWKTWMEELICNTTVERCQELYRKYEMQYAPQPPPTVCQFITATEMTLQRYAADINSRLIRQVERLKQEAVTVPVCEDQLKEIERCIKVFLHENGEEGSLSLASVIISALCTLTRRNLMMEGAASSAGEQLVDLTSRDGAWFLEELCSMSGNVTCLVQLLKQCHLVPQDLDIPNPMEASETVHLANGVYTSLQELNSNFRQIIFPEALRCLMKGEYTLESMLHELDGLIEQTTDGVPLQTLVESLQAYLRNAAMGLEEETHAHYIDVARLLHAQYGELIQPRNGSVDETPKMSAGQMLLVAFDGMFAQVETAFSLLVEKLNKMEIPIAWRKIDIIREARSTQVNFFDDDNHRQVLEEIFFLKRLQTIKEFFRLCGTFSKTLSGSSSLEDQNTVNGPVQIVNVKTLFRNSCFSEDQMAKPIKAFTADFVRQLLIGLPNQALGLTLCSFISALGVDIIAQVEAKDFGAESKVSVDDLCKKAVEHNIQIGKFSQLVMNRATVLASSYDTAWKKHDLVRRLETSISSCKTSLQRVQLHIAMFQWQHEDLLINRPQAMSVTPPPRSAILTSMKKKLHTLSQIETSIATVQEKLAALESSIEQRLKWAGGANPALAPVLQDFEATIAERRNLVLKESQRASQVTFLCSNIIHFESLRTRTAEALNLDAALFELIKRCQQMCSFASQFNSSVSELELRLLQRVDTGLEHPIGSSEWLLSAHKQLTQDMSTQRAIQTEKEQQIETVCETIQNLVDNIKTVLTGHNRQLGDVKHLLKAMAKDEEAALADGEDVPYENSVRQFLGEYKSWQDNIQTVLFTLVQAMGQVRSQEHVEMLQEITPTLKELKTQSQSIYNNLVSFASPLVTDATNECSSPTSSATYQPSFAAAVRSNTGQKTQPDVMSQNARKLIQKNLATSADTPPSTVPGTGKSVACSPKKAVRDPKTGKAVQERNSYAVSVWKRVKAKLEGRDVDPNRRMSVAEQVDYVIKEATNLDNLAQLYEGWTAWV
T6 sequence (P19623 whole entry): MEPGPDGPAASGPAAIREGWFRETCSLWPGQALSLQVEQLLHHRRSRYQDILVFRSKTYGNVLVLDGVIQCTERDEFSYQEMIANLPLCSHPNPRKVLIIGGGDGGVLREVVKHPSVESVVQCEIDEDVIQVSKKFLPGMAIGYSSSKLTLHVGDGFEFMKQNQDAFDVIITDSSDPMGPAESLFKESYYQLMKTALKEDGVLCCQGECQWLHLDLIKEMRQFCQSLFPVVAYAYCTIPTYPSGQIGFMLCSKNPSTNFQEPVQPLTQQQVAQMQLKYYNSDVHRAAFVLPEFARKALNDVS
T8 sequence (Q9UPN9 whole entry): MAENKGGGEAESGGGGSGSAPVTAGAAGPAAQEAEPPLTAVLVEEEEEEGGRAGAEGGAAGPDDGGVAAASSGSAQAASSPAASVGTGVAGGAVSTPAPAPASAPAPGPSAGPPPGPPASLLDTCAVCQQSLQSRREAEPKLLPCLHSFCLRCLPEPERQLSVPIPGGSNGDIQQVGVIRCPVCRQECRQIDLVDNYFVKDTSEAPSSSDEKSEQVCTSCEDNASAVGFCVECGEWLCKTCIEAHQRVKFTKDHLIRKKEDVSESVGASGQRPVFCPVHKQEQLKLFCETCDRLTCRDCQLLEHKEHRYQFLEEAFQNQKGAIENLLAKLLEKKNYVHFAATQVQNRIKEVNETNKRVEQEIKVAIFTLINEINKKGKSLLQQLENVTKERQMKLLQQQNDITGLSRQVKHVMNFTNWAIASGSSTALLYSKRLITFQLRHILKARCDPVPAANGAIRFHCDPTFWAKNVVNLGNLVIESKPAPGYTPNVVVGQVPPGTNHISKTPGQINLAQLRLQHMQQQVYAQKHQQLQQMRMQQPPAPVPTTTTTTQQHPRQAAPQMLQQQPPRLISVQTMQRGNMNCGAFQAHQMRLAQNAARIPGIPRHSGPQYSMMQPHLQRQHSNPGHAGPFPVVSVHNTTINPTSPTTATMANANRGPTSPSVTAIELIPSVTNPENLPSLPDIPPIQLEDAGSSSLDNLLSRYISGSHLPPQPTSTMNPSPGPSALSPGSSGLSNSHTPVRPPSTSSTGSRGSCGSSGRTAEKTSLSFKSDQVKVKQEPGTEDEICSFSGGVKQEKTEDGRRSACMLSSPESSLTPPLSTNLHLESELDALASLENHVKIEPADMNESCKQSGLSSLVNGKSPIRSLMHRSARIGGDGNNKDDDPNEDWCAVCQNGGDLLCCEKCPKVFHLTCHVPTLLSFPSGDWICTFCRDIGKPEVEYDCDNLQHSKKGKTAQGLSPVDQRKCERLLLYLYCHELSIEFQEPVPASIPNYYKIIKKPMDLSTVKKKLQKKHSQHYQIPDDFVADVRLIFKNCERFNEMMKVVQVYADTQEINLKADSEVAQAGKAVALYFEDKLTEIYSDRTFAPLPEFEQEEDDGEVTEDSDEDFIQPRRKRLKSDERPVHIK

SMILES: N#CCc1ccc(Nc2nc(NCCCN)cc(Nc3cc(C4CC4)[nH]n3)n2)cc1 [KAM]
median Log10 fold change ([1]; 0.001 uM KAM): -0.01715 | median Log10 fold change ([1]; 0.01 uM KAM): -0.04575 | median Log10 fold change ([1]; 0.1 uM KAM): -0.2439 | median Log10 fold change ([1]; 1 uM KAM): -0.5931 | median Log10 fold change ([1]; 10 uM KAM): -0.7717 | pIC50 ([1]; read-out: RB50 (the source's name)): 6.77

pIC50 [2]: < 5.00 | pIC50 [3]: < 5.00 | pIC50 [4]: < 5.00 | pIC50 [5]: < 5.00 | pIC50 [6]: < 5.00 | pIC50 [7]: < 5.00 | pIC50 [8]: < 5.00 | pIC50 [9]: < 5.00 | pIC50 [10]: < 5.00 | pIC50 [11]: < 5.00 | pIC50 [12]: < 5.00 | pIC50 [13]: < 5.00 | pIC50 [14]: < 5.00 | pIC50 [15]: < 5.00 | pIC50 [16]: < 5.00 | pIC50 [17]: < 5.00 | pIC50 [18]: < 5.00
SMILES: Cc1ccc(NC(=O)c2ccc(CN3CCN(C)CC3)cc2)cc1Nc1nccc(-c2cccnc2)n1 [Imatinib]
